# Results published in patent US6737383B1, “Herbicidal oxadiazolidines” (priority 1999, dated 2004).
# What was measured:
# crabgrass = assay: Test B pre/postemergence crabgrass; assay type: in vivo, Digitaria sanguinalis
# Summary of the method: (§1)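 Herbicidal effect was estimated by eye on a ten-point control scale after plants spent twelve to sixteen days in a greenhouse following soil or foliar treatment. Foliar sprays targeted plants at one to four leaves; all doses were formulated in a non-phytotoxic solvent with surfactant.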
# cocklebur = assay: Test B pre/postemergence cocklebur; assay type: in vivo, Xanthium strumarium
# Summary of the method: as §1
# wild oat = assay: Test B pre/postemergence wild oat; assay type: in vivo, Avena fatua
# Summary of the method: as §1
# wheat = assay: Test B pre/postemergence wheat; assay type: in vivo, Triticum aestivum
# Summary of the method: as §1
# [1] = Preemergence, Rate 62 g/ha, scale of 0 to 10 where 0 is no effect and 10 is complete control
# [2] = Preemergence, Rate 250 g/ha, scale of 0 to 10 where 0 is no effect and 10 is complete control
# [3] = Preemergence, Rate 500 g/ha, scale of 0 to 10 where 0 is no effect and 10 is complete control
# [4] = Rate 62 g/ha, Postemergence, scale of 0 to 10 where 0 is no effect and 10 is complete control
# [5] = Rate 125 g/ha, Postemergence, scale 0 to 10
# [6] = Rate 125 g/ha, Preemergence, scale of 0 to 10 where 0 is no effect and 10 is complete control
# [7] = Rate 500 g/ha, Postemergence, scale 0 to 10, 0 no effect, 10 complete control
# [8] = Rate 62 g/ha, Postemergence, scale 0 to 10, 0 no effect, 10 complete control
# [9] = Rate 125 g/ha, Postemergence, scale of 0 to 10 where 0 is no effect and 10 is complete control
# [10] = Rate 250 g/ha, Postemergence, scale of 0 to 10 where 0 is no effect and 10 is complete control
Compound,Crabgrass plant response rating (crabgrass; [1]),Crabgrass plant response rating (crabgrass; [2]),"Plant response rating, Crabgrass (crabgrass; [3])",Crabgrass plant response rating (crabgrass; [4]),Crabgrass plant response rating (crabgrass; [6]),"Plant response rating (0 to 10; 0 is no effect, 10 is complete control), Crabgrass (crabgrass; Rate 250 g/ha, Postemergence)",Crabgrass plant response rating (crabgrass; [7]),Cocklebur plant response rating (cocklebur; [1]),"Plant response rating, Cocklebur (cocklebur; [3])",Cocklebur plant response rating (cocklebur; [4]),Cocklebur plant response rating (cocklebur; [5]),Cocklebur plant response rating (cocklebur; [6]),"Plant response rating (0 to 10; 0 is no effect, 10 is complete control), Cocklebur (cocklebur; Rate 250 g/ha, Postemergence)",Cocklebur plant response rating (cocklebur; [7]),Wild oats plant response rating (wild oat; [1]),Wild oats plant response rating (wild oat; [2]),"Plant response rating, Wild oats (wild oat; [3])",Wild oats plant response rating (wild oat; [4]),Wheat plant response rating (wheat; [1]),Wheat plant response rating (wheat; [2]),other results
COCCOCn1c(=O)on(C(=O)N(c2ccc(F)cc2)C(C)C)c1=O [Compound 220],7,8,10,3,7,7,9,0,5,0,0,0,3,5,3,7,8,0,6,8,"Crabgrass plant response rating (crabgrass; [5]): 5; Wild oats plant response rating (wild oat; [5]): 0; Wild oats plant response rating (wild oat; [6]): 5; Plant response rating (0 to 10; 0 is no effect, 10 is complete control), Wild oats (wild oat; Rate 250 g/ha, Postemergence): 2; Wild oats plant response rating (wild oat; [7]): 2; Plant response rating, Wheat (wheat; [3]): 8; Wheat plant response rating (wheat; [4]): 3; Wheat plant response rating (wheat; [5]): 4; Wheat plant response rating (wheat; [6]): 7; Plant response rating (0 to 10; 0 is no effect, 10 is complete control), Wheat (wheat; Rate 250 g/ha, Postemergence): 6; Wheat plant response rating (wheat; [7]): 6"
Cc1cc(C)c(-n2c(=O)on(C(=O)N(c3ccc(F)cc3)C(C)C)c2=O)c(Br)c1 [Compound 224],2,9,10,0,5,3,0,0,0,0,0,0,0,1,0,0,2,0,0,0,"Crabgrass plant response rating (crabgrass; [5]): 0; Cocklebur plant response rating (cocklebur; [2]): 0; Wild oats plant response rating (wild oat; [5]): 0; Wild oats plant response rating (wild oat; [6]): 0; Plant response rating (0 to 10; 0 is no effect, 10 is complete control), Wild oats (wild oat; Rate 250 g/ha, Postemergence): 0; Wild oats plant response rating (wild oat; [7]): 0; Plant response rating, Wheat (wheat; [3]): 0; Wheat plant response rating (wheat; [4]): 0; Wheat plant response rating (wheat; [5]): 0; Wheat plant response rating (wheat; [6]): 0; Plant response rating (0 to 10; 0 is no effect, 10 is complete control), Wheat (wheat; Rate 250 g/ha, Postemergence): 0; Wheat plant response rating (wheat; [7]): 0"
CCC(C)N(C(=O)n1oc(=O)n(-c2ccccc2C)c1=O)c1ccc(F)cc1 (stereo not drawn) [Compound 239],,10,10,0,7,2,6,0,0,0,1,0,1,1,0,3,3,0,0,0,"Cocklebur plant response rating (cocklebur; [2]): 0; Wild oats plant response rating (wild oat; [6]): 0; Wild oats plant response rating (wild oat; [7]): 0; Plant response rating, Wheat (wheat; [3]): 2; Wheat plant response rating (wheat; [4]): 0; Wheat plant response rating (wheat; [6]): 0; Wheat plant response rating (wheat; [7]): 0"
Cc1ccccc1-n1c(=O)on(C(=O)N(c2ccncc2)C(C)C)c1=O [Compound 301],0,0,,,,,,0,,,,,,0,0,0,,,0,0,"Crabgrass plant response rating (0 to 10 scale) (crabgrass; Preemergence, Rate 125 g/ha): 0; Crabgrass plant response rating (crabgrass; [3]): 0; Crabgrass plant response rating (crabgrass; [8]): 0; Crabgrass plant response rating (crabgrass; [9]): 0; Plant response rating, Crabgrass (crabgrass; [10]): 0; Cocklebur plant response rating (0 to 10 scale) (cocklebur; Preemergence, Rate 125 g/ha): 0; Cocklebur plant response rating (cocklebur; [2]): 0; Cocklebur plant response rating (cocklebur; [8]): 0; Cocklebur plant response rating (cocklebur; [9]): 0; Plant response rating, Cocklebur (cocklebur; [10]): 0; Wild oats plant response rating (0 to 10 scale) (wild oat; Preemergence, Rate 125 g/ha): 0; Wild oats plant response rating (wild oat; [3]): 0; Wild oats plant response rating (wild oat; [8]): 0; Wild oats plant response rating (wild oat; [9]): 0; Plant response rating, Wild oats (wild oat; [10]): 0; Wheat plant response rating (0 to 10 scale) (wheat; Preemergence, Rate 125 g/ha): 0; Wheat plant response rating (wheat; [3]): 0; Wheat plant response rating (wheat; [8]): 0; Wheat plant response rating (wheat; [9]): 0; Plant response rating, Wheat (wheat; [10]): 0"
